In patent publication US20220047475A1, “COSMETIC USE OF A SHORT CHAIN FATTY ACID (SCFA) FOR PREVENTING AND/OR TREATING DRY SKIN AND/OR AGED SKIN” (L'OREAL, priority 2018, published 2022):

Legend:
[1] = system: sebocytes; assay: High content screening (HCS) imaging of sebocytes: lipid droplets (BODIPY) and nuclei (Hoechst); assay type: cell-based; details: for Nuclear count / Size of nucleus: 5 mmol.L^−1, mean ± SD, holocrine secretion
Description: Cell culture. […] D2650) in liquid nitrogen have been thawed in a water bath at 37° C. and directly washed with prewarmed […] culture media (Table 1). 3T3m cells were plated at 40.10^3 cells·cm^2 in a 175 cm^2 flask (Thermoscientific Ref. 159910) and incubated 2 hours at 37° C., 5% CO2. […] Vials containing sebocytes were thawed in a water bath at 37° C. and directly washed with prewarmed […] culture media. Sebocytes were plated at 2600 cells·cm^2 in a 175 cm^2 flask containing attached 3T3m cells and incubated (37° C., 5% CO2) to reach 70-80% confluence. After 5 days, cells were harvested using trypsin (Gibco Ref. 25300) and transferred in 96 well plates (10×10^3 cells per well, Greiner Bio-one Ref. 655956) and incubated (37° C., 5% CO2). Cell treatment. […] For valeric acid, the pH in modified cell media was neutralized with NaOH (Sodium hydroxide, Sigma 283060). […]) were both dissolved in pure ethanol (Merck Ref. 1.00983) for a final concentration per well of 60 μmar'. For these treatments, modified cell media supplemented with pure ethanol was used as controls. Supernatants (25%) sampled in exponential and stationary phases were neutralized with NaOH and were controlled with modified cell media supplemented at 25% with pure bacterial culture media. All conditions were repeated 8 times (n=8) for SOFA experiments and 24 times (n=24) for supernatants assays. Microplates were incubated 48 hours (37° C., 5% CO2) and directly sampled and/or stained and analyzed. Cell staining. […] Lipid droplets were stained with BODIPY (Invitrogen Ref. […]) diluted in DPBS solution supplemented with delipidated BSA (Bovin Serum Albumin, Sigma Ref. A7906). Nuclei were stained with Hoechst (Invitrogen, Ref. H3570) diluted in DPBS solution. High content imaging, images analysis and statistics. […] Images were analyzed using the MetaXpress image based module Transfluor (Molecular Devices). Results were exported into GraphPad Prism (version 7.01) to determine statistical significance using One-way ANOVA and expressed on bar graph as mean±SD or on box plot±min and max. *: […] Sebocytes were seeded in 96 well plates, followed by treatment with SOFA and/or LCFAs with at least 8 replicate wells (1 column) for each condition.

[2] = system: sebocytes; assay: Quantification of secreted triglycerides (TGs) in sebocyte supernatants; assay type: cell-based; details: for % of excreted TGs (compared to control) / FC (compared to control) of excreted TGs: 5 mmol.L^−1, 24 h
Description: Cell culture. Vials containing 3T3 mitomycine treated cells stored in 20% DMSO (Dimethylsulf oxide, Sigma Ref. D2650) in liquid nitrogen have been thawed in a water bath at 37° C. and directly washed with prewarmed G7F culture media (Table 1). 3T3m cells were plated at 40.10^3 cells·cm^2 in a 175 cm^2 flask (Thermoscientific Ref. 159910) and incubated 2 hours at 37° C., 5% CO2. Sebocytes were obtained from primary cell line and stored in 10% DMSO in liquid nitrogen. Vials containing sebocytes were thawed in a water bath at 37° C. and directly washed with prewarmed G7F culture media. Sebocytes were plated at 2600 cells·cm^2 in a 175 cm^2 flask containing attached 3T3m cells and incubated (37° C., 5% CO2) to reach 70-80% confluence. After 5 days, cells were harvested using trypsin (Gibco Ref. 25300) and transferred in 96 well plates (10×10^3 cells per well, Greiner Bio-one Ref. 655956) and incubated (37° C., 5% CO2).
Cell treatment. After 24 hours, cell media was replaced by modified cell media (G7F w/o hydrocortisone and w/o antibiotic-antimycotic) supplemented with: modified cell media (control), sodium acetate (CH3COONa, Sigma Ref. 32319), sodium propionate (CH3CH2COONa, Sigma Ref. P1880), sodium butyrate (CH3(CH2)2COONa Sigma Ref. 303410), valeric acid (CH3(CH2)3COOH, Sigma Ref. 75054). For valeric acid, the pH in modified cell media was neutralized with NaOH (Sodium hydroxide, Sigma 283060). Palmitic acid (C16:0, Cayman Ref. 10006627) and linoleic acid (C18:2 cis 9.12, Sigma Ref. L1376) were both dissolved in pure ethanol (Merck Ref. 1.00983) for a final concentration per well of 60 μmar′. For these treatments, modified cell media supplemented with pure ethanol was used as controls. Supernatants (25%) sampled in exponential and stationary phases were neutralized with NaOH and were controlled with modified cell media supplemented at 25% with pure bacterial culture media. All conditions were repeated 8 times (n=8) for SOFA experiments and 24 times (n=24) for supernatants assays. […]
Triglycerides quantification. Assays have been realized using Triglycerides Assays Kit—Quantification (Abcam, ref. Ab65336) following manufacturer's instructions. Each supernatant of the 8 replicates have been sampled (50 μl) and analyzed following the colorimetric detection method of the kit (OD 570 nm) using a plate reader Infinite 200PRO (Tecan).
Holocrine secretion is the final step of sebogenic process wherein the mature cells burst to release the lipid contents. Promotion of holocrine secretion by SOFA was based on observations and interpretations of a lower number of cells in association with an enlargement of nuclear area.

[3] = sebocytes, 2.5, 5, 10 and 15 mmol·l^−1

## CC(=O)[O-].[Na+] [Acetate, sodium acetate, reference compound]
[1]; sebocytes, 5 mmol.L^−1
  de novo lipid induction compared to the control: significant
[1]; sebocytes
  Nuclear count: 18574 ± 2148 =
  Size of nucleus: 215 ± 5 =
[1]; sebocytes, listed as acetate
  Nuclear count: no effect
  Size of nucleus: no effect
[2]
  % of excreted TGs (compared to control): −10% =
  FC (compared to control) of excreted TGs: FC = 0.90, =

## CCC(=O)[O-].[Na+] [Proprionate, sodium propionate]
[1]; [3]
  nuclear count per well: decrease in the nuclear count per well
  size of LDs compared to controls: LDs increased in size as the concentration of propionate increased
[1]; sebocytes, pure propionate 5 mmol·l^−1
  number of LDs per cell: about 12 LDs/cell
[2]; listed as P5
  % of excreted TGs (compared to control): +20%
  FC (compared to control) of excreted TGs: ~1.2

## CCCC(=O)[O-].[Na+] [butyrate, sodium butyrate]
[1]; [3]
  nuclear count per well: decrease in the nuclear count per well
[2]; 15 mmol·l−1, 24 h
  FC of TGs excreted: FC of TGs in B15>FC of TGs in B5

## CCCCC(=O)O [valerate, valeric acid]
[1]; [3]
  nuclear count per well: decrease in the nuclear count per well
[2]; 15 mmol·l−1, 24 h
  % of TGs excreted: +100%
  FC of TGs excreted: ~2
